Measurements reported in US8173696B2, “Inhibitors of cysteine proteases and methods of use thereof” (Baylor University, priority 2007, dated 2012).

How the values were obtained:
cathepsin L [1] = test: Inhibition of activated cathepsin L in DU-145 cell lysates; type: cell-based; conditions: DU-145 cell lysates preincubated for 24 h with compound, following removal of media, replicate samples a-c; for activity (cathepsin L activity after activation): control 6.93E−03; for cps (cathepsin L activity after activation): control 26950
Procedure: (§1) A prostrate carcinoma derived cell line (DU-145) was maintained in free phenol red DMEM supplemented with 10% fetal bovine serum, 1% glutamine, 1% glutamax, 1% Penicillin-Streptomycin and 1 mM sodium pyruvate, at 37° C. in an atmosphere of 95% air/5% CO2. DU145 was plated at 4×10^6 cells/10 cm Petri dish for dense, super confluent density. These cultures were incubated for 3 days before collection. Twenty-four hours prior to harvesting, cells were fed with serum-free media or serum-free media containing inhibitors at a final concentration of 20 μM. On the day of harvesting, the serum-free medium was collected for assay of Cathepsin L activity secreted in the medium. The cells were rinsed in cold PBS (pH 7.2) and collected in cold PBS containing […]. The cells were lysed using a Sonicator (Misonix 3000) at medium setting with pauses at 0° C. for temperature equilibration. Then the homogenate was centrifuged at 13,000×g for 20 min and the supernatant saved. […] Fluorescence was measured in a Fluoro Max 2 (Jobin Yvon) spectrofluorometer at an excitation wavelength of 355 nm and an emission wavelength of 460 nm. The substrate is hydrolyzed by cathepsin L and to a smaller extent by cathepsin B, therefore the activity is referred to as cathepsin L+B activity. Data analysis was performed using Prism software (GraphPad version 4). Data corresponding to cathepsin L activity (after activation) in cell lysates preincubated for 24 h with Compound 14 and following the removal of media is summarized in Table 5 below. Data corresponding to cathepsin L activity (after activation) in cell lysates preincubated for 24 h with Compound 27 and following the removal of media is summarized in Table 6 below.

cathepsin L [2] = test: Inhibition of activated cathepsin L secreted in DU-145 cell conditioned media; type: cell-based; conditions: compound 20 μM, replicate samples a-c
Procedure: as §1, with “cell conditioned media in the presence of” for “cell lysates preincubated for 24 h with”, “14 (20 μM)” for “14 and following the removal of media”, “Table 3” for “Table 5”, “27 (20 μM)” for “27 and following the removal of media”, “Table 4” for “Table 6”

Human liver cathepsin L = target: T1, Human liver cathepsin L (Homo sapiens, UniProt P07711); test: Cathepsin L inhibition in vitro (Z-FR-AMC fluorescence); type: biochemical; conditions: Table A; 1 nM human liver cathepsin L, pH 5.5, 25° C., 50 μM Z-FR-AMC; read-out: Cat L IC50
T1 construct: from tissue; host or cells: human liver
T1 sequence (P07711 114-333): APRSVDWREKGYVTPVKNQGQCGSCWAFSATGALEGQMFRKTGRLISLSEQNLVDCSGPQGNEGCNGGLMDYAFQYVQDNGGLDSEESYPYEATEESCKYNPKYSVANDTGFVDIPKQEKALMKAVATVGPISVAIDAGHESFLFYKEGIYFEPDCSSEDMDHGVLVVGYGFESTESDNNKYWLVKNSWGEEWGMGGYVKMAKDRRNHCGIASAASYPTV
Procedure: Human liver cathepsin L (1 nM) was incubated in 50 mM sodium acetate buffer, pH 5.5 containing 1 mM EDTA, 2 mM DTT, 0.001% (v/v) brij 35 with potential inhibitors at 20 different concentrations (from 0.05 nM to 50 μM) at 25° C. for 5 minutes before 100 μL substrate (benzyloxycarbonyl-L-phenylalanyl-L-arginyl-7-amido-4-methylcoumarin, abbreviated as Z-FR-AMC, 50 μM in final assay condition) was added to the enzyme-inhibitor mixture; total volume was 200 μL. Controls were performed using enzyme alone, substrate alone, and enzyme with DMSO. […] Spectra were taken at 3-sec intervals for 3 minutes. IC50 values were determined by non-linear regression analysis using vo(inh)=VMAX/{1+10(logIC50−x)*Hillslope} and Prism software (GraphPad).

Cat B = Cat B (Homo sapiens, UniProt P07858); test: Cathepsin B inhibition in vitro; type: biochemical; conditions: Table A; read-out: Cat B IC50
Procedure: For in vitro cysteine protease inhibition determinations, a compound's effectiveness can be given by an IC50 value. In these assays, the enzyme to be inhibited (e.g., a cruzain or cruzipain, a rhodesain, a brucipain, a congopain, a falcipain, CPB2.8 Delta CTE, a cathepsin-L, cathepsin-B, a cathepsin-H, a cathepsin-K, a cathepsin-S) is first incubated with varying concentrations (about 20-50,000 nM) of a test compound. To this is added a short peptide substrate of the enzyme of 1 to 10 amino acids, usually a di- or tri-peptide substrate, which is labeled with either a fluorogenic or chromogenic moiety. An exemplary chromogenic moiety is p-nitro-anilide (pNA). […] Exemplary peptide substrates include Phe-Arg, Arg-Arg, Phe-Arg-X (X=Ala, Arg), and Phe-X-Ser-Arg-Gln (X=Arg, 4-aminomethyl-phenylalanine (Arm), 4-aminomethyl-N-isopropyl-phenylalanin-e (laf), 4-piperidinyl-alanine (Ppa) or 4-aminocyclohexyl-alanine (Aca)). Cleavage of the labeled substrate induces a chromogenic or fluorescent signal that is measured using spectrophotometer or a spectrofluorometer, respectively. Signals induced in the presence of varying concentrations of test compound are measured in comparison to a positive control of enzyme and substrate and a negative control of enzyme in diluent (e.g., DMSO). Spontaneous cleavage of substrate is measured in controls with substrate alone. IC50 values are determined graphically using compound inhibitor concentrations in the linear portion of a plot of inhibition versus log [I].

Cruzain = Cruzain (Trypanosoma cruzi, UniProt P25779); test: biochemical; type: biochemical; conditions: Table A; 0.1 nM cruzain, pH 5.50, 25° C., 10 μM Z-Phe-Arg-AMC
Sequence of Cruzain (P25779 123-467): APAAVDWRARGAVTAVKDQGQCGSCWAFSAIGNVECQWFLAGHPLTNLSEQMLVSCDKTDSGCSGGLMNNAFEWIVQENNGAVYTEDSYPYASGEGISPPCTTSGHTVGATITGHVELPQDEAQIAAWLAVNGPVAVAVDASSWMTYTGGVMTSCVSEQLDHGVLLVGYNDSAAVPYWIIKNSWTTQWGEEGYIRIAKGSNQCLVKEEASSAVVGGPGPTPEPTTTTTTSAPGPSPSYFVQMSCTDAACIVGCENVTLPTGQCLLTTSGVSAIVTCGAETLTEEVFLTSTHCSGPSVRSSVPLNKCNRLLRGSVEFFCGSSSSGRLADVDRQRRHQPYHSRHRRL
Procedure: Cruzain (0.1 nM) in 100 mM sodium acetate buffer (pH 5.50) containing 5 mM DTT was preincubated for 5 min at 25° C. with inhibitor.

- IC50 (Human liver cathepsin L): 1.5 nM
- IC50 (Cat B): > 3000 nM
- IC50 (Cruzain): 24 nM
SMILES: NC(=S)NN=C(c1cccc(Br)c1)c1cccc(Br)c1 [Compound 14, Bis(3-bromophenyl) ketone thiosemicarbazone]
- activity (cathepsin L activity after activation) (cathepsin L [1]; listed as 14a): 0.00161 µM/s
- activity (cathepsin L activity after activation) (cathepsin L [1]; listed as 14b): 0.00144 µM/s
- activity (cathepsin L activity after activation) (cathepsin L [1]; listed as 14c): 0.00129 µM/s
- cps (cathepsin L activity after activation) (cathepsin L [1]; listed as 14a): 6259 cps
- cps (cathepsin L activity after activation) (cathepsin L [1]; listed as 14b): 5608 cps
- cps (cathepsin L activity after activation) (cathepsin L [1]; listed as 14c): 5003 cps
- activity (cathepsin L activity after activation) (cathepsin L [2]; control 1.50E−03, listed as 14a): 0.000186 µM/s
- activity (cathepsin L activity after activation) (cathepsin L [2]; control 1.50E−03, listed as 14b): 0.000165 µM/s
- activity (cathepsin L activity after activation) (cathepsin L [2]; control 1.50E−03, listed as 14c): 0.000127 µM/s
- cps (cathepsin L activity after activation) (cathepsin L [2]; control 5848, listed as 14a): 722.5 cps
- cps (cathepsin L activity after activation) (cathepsin L [2]; control 5848, listed as 14b): 641.2 cps
- cps (cathepsin L activity after activation) (cathepsin L [2]; control 5848, listed as 14c): 495 cps
